Earlier results in patent US7358226B2, “Ultrasonic concentration of drug delivery capsules” (The Regents of the University of California, priority 2003, dated 2008).

Experiments:
P-gp = molecular target: T1, P-gp (Mus musculus, UniProt P21447)
T1 construct: host or cells: mouse brain in vivo (endogenous protein)

P-glycoprotein = molecular target: T2, P-glycoprotein (Mus musculus, UniProt P21447)
T2 construct: host or cells: mouse brain in vivo (endogenous protein)

tumor = details: paclitaxel alone

T1 sequence (P21447 whole entry): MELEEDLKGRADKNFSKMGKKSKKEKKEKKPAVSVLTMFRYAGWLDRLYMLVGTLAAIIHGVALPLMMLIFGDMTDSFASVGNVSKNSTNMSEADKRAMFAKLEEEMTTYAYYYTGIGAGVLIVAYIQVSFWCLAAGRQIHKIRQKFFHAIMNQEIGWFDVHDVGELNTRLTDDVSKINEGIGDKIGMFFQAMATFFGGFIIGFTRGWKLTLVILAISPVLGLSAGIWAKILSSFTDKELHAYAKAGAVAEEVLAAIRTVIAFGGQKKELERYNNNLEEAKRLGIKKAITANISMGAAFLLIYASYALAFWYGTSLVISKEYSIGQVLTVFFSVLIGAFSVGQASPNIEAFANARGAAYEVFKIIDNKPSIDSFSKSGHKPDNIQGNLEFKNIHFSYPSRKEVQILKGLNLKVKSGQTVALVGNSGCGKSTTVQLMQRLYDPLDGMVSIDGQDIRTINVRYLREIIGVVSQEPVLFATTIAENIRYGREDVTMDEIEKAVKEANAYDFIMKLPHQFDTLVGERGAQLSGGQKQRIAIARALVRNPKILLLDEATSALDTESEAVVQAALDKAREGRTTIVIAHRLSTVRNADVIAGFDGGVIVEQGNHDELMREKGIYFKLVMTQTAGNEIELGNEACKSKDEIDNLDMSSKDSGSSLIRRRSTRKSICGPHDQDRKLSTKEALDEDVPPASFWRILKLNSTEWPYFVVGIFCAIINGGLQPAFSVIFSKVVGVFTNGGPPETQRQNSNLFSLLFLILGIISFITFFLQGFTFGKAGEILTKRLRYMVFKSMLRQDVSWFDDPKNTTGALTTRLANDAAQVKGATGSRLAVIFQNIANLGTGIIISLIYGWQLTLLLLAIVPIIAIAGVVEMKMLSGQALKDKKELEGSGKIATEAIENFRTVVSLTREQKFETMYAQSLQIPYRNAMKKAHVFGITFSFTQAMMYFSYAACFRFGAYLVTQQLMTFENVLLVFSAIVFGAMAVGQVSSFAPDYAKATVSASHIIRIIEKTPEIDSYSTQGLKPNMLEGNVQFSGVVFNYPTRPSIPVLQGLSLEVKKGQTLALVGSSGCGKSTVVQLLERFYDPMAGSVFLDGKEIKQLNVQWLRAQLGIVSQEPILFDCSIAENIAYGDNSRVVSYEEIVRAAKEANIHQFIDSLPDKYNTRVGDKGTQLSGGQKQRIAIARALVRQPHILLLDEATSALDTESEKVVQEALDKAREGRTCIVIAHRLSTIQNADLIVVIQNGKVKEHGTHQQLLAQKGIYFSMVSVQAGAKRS
T2 sequence (P21447 whole entry): as above

## COc1cc2c(cc1OC)CN(CCc1ccc(NC(=O)c3cc(OC)c(OC)cc3NC(=O)c3cnc4ccccc4c3)cc1)CC2 [XR9576]
P-gp; preadministration of XR9576, increase was not significant
  increase of uptake of F18-fluoropaclitaxel: 20%

## C/C=C/C[C@@H](C)C(=O)[C@H]1C(=O)N[C@@H](C(C)C)C(=O)N(C)CC(=O)N(C)[C@@H](CC(C)C)C(=O)N[C@@H](C(C)C)C(=O)N(C)[C@@H](CC(C)C)C(=O)N[C@@H](C)C(=O)N[C@H](C)C(=O)N(C)[C@@H](CC(C)C)C(=O)N(C)[C@@H](CC(C)C)C(=O)N(C)[C@@H](C(C)C)C(=O)N1C [Valspodar]
P-glycoprotein; Valspodar co-administered with paclitaxel
  brain concentrations of paclitaxel: significantly increase

## CC(=O)O[C@H]1C(=O)[C@@]2(C)[C@H]([C@H](OC(=O)c3ccccc3)[C@]3(O)C[C@H](OC(=O)[C@H](O)[C@@H](NC(=O)c4ccccc4)c4ccccc4)C(C)=C1C3(C)C)[C@]1(OC(C)=O)CO[C@@H]1C[C@@H]2O [paclitaxel, Paclitaxel]
tumor
  effect on tumor volume: did not affect tumor volume
P-glycoprotein; P-glycoprotein knockout mice
  penetration of paclitaxel into the brain: markedly increased

## CC(=O)O[C@H]1C(=O)[C@@]2(C)[C@H]([C@H](OC(=O)c3ccccc3)[C@]3(O)C[C@H](OC(=O)[C@H](O)[C@@H](NC(=O)c4ccc([18F])cc4)c4ccccc4)C(C)=C1C3(C)C)[C@]1(OC(C)=O)CO[C@@H]1C[C@@H]2O [F18-fluoropaclitaxel]
P-gp; P-gp knockout mice relative to wildtype controls
  increase of F18-fluoropaclitaxel uptake in the brain: 1400%
P-gp; mouse, in vivo
  clearance: rapid clearance
  tissue uptake: high uptake in many tissues
